Source: patent publication US9334264B2, “NAMPT inhibitors” (AbbVie Inc., priority 2012, dated 2016)

Experiments:
[1] = target: NAMPT (human, recombinant, C-terminally His-tagged) (Homo sapiens, UniProt P43490); test: Time-Resolved Fluorescence Resonance Energy Transfer (TR-FRET) Binding Assay of NAMPT; conditions: absence of substrates; 6.8 nM NAMPT, 200 nM probe, equilibrated 3 hours
Outline: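 Displacement of 200 nM Oregon Green-labelled nicotinamide-competitive probe from 6.8 nM His-tagged NAMPT, detected with 1 nM Tb-anti-His; HEPES pH 7.5, 2% DMSO, 3 h room temperature. Em520/Em495 ratios normalized and fit four-parameter logistic for IC50.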

[2] = target: NAMPT (Homo sapiens, UniProt P43490); test: Time-Resolved Fluorescence Resonance Energy Transfer (TR-FRET) Binding Assay of NAMPT with PRPP; conditions: 200 μM PRPP and 2.5 mM ATP; 2 nM NAMPT, 2 nM probe, equilibrated 16 hours
NAMPT, sequence (P43490 whole entry): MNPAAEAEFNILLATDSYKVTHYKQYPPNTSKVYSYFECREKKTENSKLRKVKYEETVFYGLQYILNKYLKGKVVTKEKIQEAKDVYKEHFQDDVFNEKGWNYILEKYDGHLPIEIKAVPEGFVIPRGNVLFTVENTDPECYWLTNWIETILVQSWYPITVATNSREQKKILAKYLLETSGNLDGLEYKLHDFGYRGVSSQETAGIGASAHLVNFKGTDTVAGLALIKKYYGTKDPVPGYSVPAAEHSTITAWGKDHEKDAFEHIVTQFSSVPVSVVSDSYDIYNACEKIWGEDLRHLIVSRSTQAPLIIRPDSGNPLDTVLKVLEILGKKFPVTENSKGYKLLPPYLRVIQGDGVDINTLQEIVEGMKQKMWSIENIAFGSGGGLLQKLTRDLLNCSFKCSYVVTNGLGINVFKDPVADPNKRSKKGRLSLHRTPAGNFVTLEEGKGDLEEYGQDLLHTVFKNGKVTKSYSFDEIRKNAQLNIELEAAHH
Outline: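 Binding was measured by TR-FRET with 2 nM NAMPT, 2 nM probe and 1 nM Tb-anti-His antibody in the presence of 200 μM PRPP and 2.5 mM ATP, with 2% DMSO. Equilibration lasted 16 h before reading, allowing possible enzymatic modification of compounds.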

NAMPT (human, recombinant, C-terminally His-tagged), sequence (P43490 whole entry): as above

Structure (SMILES)	IC50 [1]	IC50 [2]
COCCN(C(=O)Cc1ccc(N)cc1)c1ncc(C(=O)NCCCn2ccnc2)s1 [Example 188, 2-{[(4-aminophenyl)acetyl](2-methoxyethyl)amino}-N-[3-(1H-imidazol-1-yl)propyl]-1,3-thiazole-5-carboxamide]	356 nM	0.195 nM
C=CCN(CC=C)CCN(C(=O)CCOC)c1ncc(C(=O)NCCCn2ccnc2)s1 [Example 189, 2-[{2-[di(prop-2-en-1-yl)amino]ethyl}(3-methoxypropanoyl)amino]-N-[3-(1H-imidazol-1-yl)propyl]-1,3-thiazole-5-carboxamide]	4700 nM	0.586 nM
CC(C)CCN(C(=O)C1CC1)c1ncc(C(=O)NCCCn2ccnc2)s1 [Example 152, 2-[(cyclopropylcarbonyl)(3-methylbutyl)amino]-N-[3-(1H-imidazol-1-yl)propyl]-1,3-thiazole-5-carboxamide]	768 nM	0.232 nM
COCCN(C(=O)Cc1cccnc1)c1ncc(C(=O)NCCCn2ccnc2)s1 [Example 184, N-[3-(1H-imidazol-1-yl)propyl]-2-[(2-methoxyethyl)(pyridin-3-ylacetyl)amino]-1,3-thiazole-5-carboxamide]	763 nM	0.285 nM
CC(C)C(CC(=O)O)NC(=O)N(Cc1ccc(C#N)cc1)c1ncc(C(=O)NCCCn2ccnc2)s1 (stereo not drawn) [Example 168, 3-{[(4-cyanobenzyl)(5-{[3-(1H-imidazol-1-yl)propyl]carbamoyl}-1,3-thiazol-2-yl)carbamoyl]amino}-4-methylpentanoic acid]	> 10000 nM	1390 nM
CC(C)CCN(C(=O)[C@H](C)Oc1ccccc1)c1ncc(C(=O)NCCCn2ccnc2)s1 [Example 134, N-[3-(1H-imidazol-1-yl)propyl]-2-{(3-methylbutyl)[(2S)-2-phenoxypropanoyl]amino}-1,3-thiazole-5-carboxamide]	200 nM	0.617 nM
O=C(NCCCn1ccnc1)c1cnc(N(Cc2ccc(F)cc2)C(=O)CC2CCCCC2)s1 [Example 5, 2-[(cyclohexylacetyl)(4-fluorobenzyl)amino]-N-[3-(1H-imidazol-1-yl)propyl]-1,3-thiazole-5-carboxamide]	720 nM	0.461 nM
CC(C)CCN(C(=O)CCc1ccccc1)c1ncc(C(=O)NCCCn2ccnc2)s1 [Example 137, N-[3-(1H-imidazol-1-yl)propyl]-2-[(3-methylbutyl)(3-phenylpropanoyl)amino]-1,3-thiazole-5-carboxamide]	40.2 nM	0.236 nM
N#Cc1ccc(CN(C(=O)NCCCN2CC(O)C2)c2ncc(C(=O)NCCCn3ccnc3)s2)cc1 [Example 149, 2-[(4-cyanobenzyl){[3-(3-hydroxyazetidin-1-yl)propyl]carbamoyl}amino]-N-[3-(1H-imidazol-1-yl)propyl]-1,3-thiazole-5-carboxamide]	> 10000 nM	94.2 nM
N#Cc1ccc(CCN(C(=O)CC2CCOCC2)c2ncc(C(=O)NCCCn3ccnc3)s2)cc1 [Example 49, 2-{[2-(4-cyanophenyl)ethyl](tetrahydro-2H-pyran-4-ylacetyl)amino}-N-[3-(1H-imidazol-1-yl)propyl]-1,3-thiazole-5-carboxamide]	1690 nM	1.07 nM
N#Cc1ccc(C(=O)N(Cc2ccc(F)cc2)c2ncc(C(=O)NCCCn3ccnc3)s2)cc1 [Example 11, 2-[(4-cyanobenzoyl)(4-fluorobenzyl)amino]-N-[3-(1H-imidazol-1-yl)propyl]-1,3-thiazole-5-carboxamide]	476 nM	0.47 nM
CC(C)(CNC(=O)N(Cc1ccc(C#N)cc1)c1ncc(C(=O)NCCCn2ccnc2)s1)C(=O)O [Example 169, 3-{[(4-cyanobenzyl)(5-{[3-(1H-imidazol-1-yl)propyl]carbamoyl}-1,3-thiazol-2-yl)carbamoyl]amino}-2,2-dimethylpropanoic acid]	8450 nM	266 nM
